The source of these data is patent US5094945A, “Inhibition resistant 5-enolpyruvyl-3-phosphoshikimate synthase, production and use” (priority 1988, dated 1992).

Data set [1] concerns O=C(O)C1=C[C@@H](OP(=O)(O)O)[C@@H](O)[C@H](O)C1. Kind of data set: ES-3-P synthase assay (release of inorganic phosphate), enzyme preparation of glyphosate-resistant mutant CT7. It is filed as biochemical, S. typhimurium. As to conditions: other: CT7 mutant enzyme preparation; phosphoenolpyruvate 2.5 × 10^-1 M; 37.0 °C. The method, then: (§1) S. typhimurium strains CT7 and STK1 were grown with aeration for 24 hours at 37° C. in M9 broth. Cells were harvested by centrifugation at 4° C., washed twice with M9 salts, resuspended in 0.01 M Tris-HC1 (pH8.2) and sheared with a French press at 20,000 psi. The homogenate was centrifuged at 16,000 g for 40 min and the supernatant treated with 2% protamine sulfate (1.0 ml of 2% protamine sulfate for every 35 mg of protein). The precipitate was removed by centrifugation at 18,000 xg for 35 min, resuspended and used for enzyme assays. Activity of the enzyme was determined by measuring the rate of release of inorganic phosphate (Heinonen and Lahti, Anal. Biochem. (1981) 113:313-317).
(§2) A typical assay mixture contained 150 μmole maleic acid buffer (pH5.6), 2.88 μmole phosphoenolpyruvate, 4.08 μmole 3-phosphoshikimate and the enzyme fraction in a total volume of 1.5 ml. The reaction was started by addition of the enzyme after pre-incubation of the assay mixture at 37° C. for 5 min. Aliquots were taken at timed intervals and mixed immediately with the reagents for phosphate analysis. The low pH of the reagent (1.25 N H2 SO4) terminated enzyme activity.
(§3) Resistance to glyphosate mediated by a mutation(s) at the aroA locus could result from altered regulation leading to overproduction of 5-enolpyruvyl-3phosphoshikimate synthase or to a structural alteration of the enzyme. […]

Data set [2] has the same test system. Briefly: ES-3-P synthase assay (release of inorganic phosphate), enzyme preparation of wild type strain STK1. It is filed as biochemical, S. typhimurium. As to conditions: other: STK1 wild type enzyme preparation; phosphoenolpyruvate 2.5 × 10^-1 M; 37.0 °C. The protocol:
as §1, §2
(§4) Resistance to glyphosate mediated by a mutation(s) at the aroA locus could result from altered regulation leading to overproduction of 5-enolpyruvyl-3phosphoshikimate synthase or to a structural alteration of the enzyme. To distinguish between these two hypotheses in vitro enzyme preparations were assayed from Salmonella strains STK1 and CT7 which are the wild type and mutant strain respectively. 5-Enolpyruvyl-3-phosphoshikimate synthase activities from wild type and glyphosate-resistant mutants differed by Km for 3-phosphoshikimate, Kd for glyphosate, and at high concentration of 3-phosphoshikimate, by specific activity.

Data set [3] concerns the target T1, 5-enolpyruvyl-3-phosphoshikimate synthase from wild type strain STK1 (Salmonella typhimurium, UniProt P07637).
T1 construct: endogenous in cells; host or cells: S. typhimurium strain STK1, French press homogenate, protamine sulfate precipitate
The data set is described as above. The class given is biochemical, S. typhimurium. The protocol:
as §1, §2, §4

In data set [4] the target is T2, 5-enolpyruvyl-3-phosphoshikimate synthase from glyphosate-resistant mutant CT7 (Salmonella typhimurium, UniProt P07637, P101S).
T2 construct: endogenous in cells; host or cells: S. typhimurium strain CT7, French press homogenate, protamine sulfate precipitate
Briefly: ES-3-P synthase assay (release of inorganic phosphate), enzyme preparation of glyphosate-resistant mutant CT7. It is filed as biochemical, S. typhimurium. The method, then:
as §1, §2, §3

Data set [5] addresses T3, EPSP synthase purified from wild type S. typhimurium (Salmonella typhimurium, UniProt P07637).
T3 construct: ES-3-P synthase purified from wild-type S. typhimurium; endogenous in cells; host or cells: wild-type S. typhimurium (purified)
Kind of data set: Fluorimetric EPSP synthase assay, forward direction, purified wild type enzyme. As to conditions: pH 7.0, 500 μM shik 3-P, read-out: Ki for glyphosate. It is filed as biochemical. The protocol:
(§5) In the next study, a comparison of the kinetic parameters at pH 7.0 of ES-3-P synthase purified from wild-type S. typhimurium and from the mutant glyphosate-resistant strain was made. Enzyme activity was assayed fluorometrically in the forward direction as described by Boocock and Coggins, FEBS Letters (1983) 154:127-133.

Data set [6] deals with T4, EPSP synthase purified from the mutant glyphosate-resistant strain (Salmonella typhimurium, UniProt P07637, P101S).
T4 construct: ES-3-P synthase purified from wild-type S. typhimurium and from the mutant glyphosate-resistant strain; endogenous in cells; host or cells: mutant glyphosate-resistant S. typhimurium strain (purified)
Kind of data set: Fluorimetric EPSP synthase assay, forward direction, purified mutant enzyme. It is filed as biochemical, S. typhimurium. The protocol: as §5

For data set [7], the target named is T5, EPSP synthase from the glyphosate-resistant strain of S. typhimurium (Salmonella typhimurium, UniProt P07637, P101S).
T5 construct: EPSP synthase activities from the glyphosate-resistant strain of S. typhimurium; endogenous in cells; host or cells: glyphosate-resistant strain of S. typhimurium
Briefly: EPSP synthase activity with inhibitor, bacterial mutant enzyme. The settings on record: pH 7, read-out: EPSP Synthase Activity, % control. The class given is biochemical. The protocol:
(§6) In the next study, the effect of glyphosate and antiserum to bacterial EPSP synthase on EPSP synthase activities from the glyphosate-resistant strain of S. typhimurium, from the wild-type turnip gall and from ocs-aroA turnip gall was studied. Enzyme activity was assayed fluorometrically in the forward direction as described by Boocock and Coggins, supra.

Data set [8] has as its system EPSP synthase from wild type turnip gall. Briefly: EPSP synthase activity with inhibitor, wild type turnip gall extract. The class given is biochemical. As to conditions: pH 7.0, PEP 500 μM, shik 3P 500 μM. The protocol: as §6
The subject of data set [9] is EPSP synthase from ocs-aroA transformed turnip gall. Briefly: EPSP synthase activity with inhibitor, ocs-aroA transformed turnip gall extract. It is filed as biochemical. As to conditions: pH 7.0, PEP 500 μM, shik 3P 500 μM. The method, then:
as §6

Data set [10] has as its system S. typhimurium strain TA831. Briefly: Colony formation on solid M9 medium with glyphosate. The class given is cell-based. The settings on record: Salmonella enterica, read-out: glyphosate concentration at which no colonies form. The method, then: (§7) Glyphosate was added to M9 after autoclaving. For selection experiments, a commercial solution of glyphosate was used. Resistant mutants were isolated by plating bacterial suspensions in M9 broth or on M9 solid medium supplemented with varying amounts of glyphosate. The level of resistance achieved by the mutants was scored by three types of tests: a spot test, consisting of toothpicking a small colony from a non-selective to a selective medium; a streak test, consisting of streaking cells on a selective plate to obtain single colonies; and growth curves, to determine the kinetics of growth in liquid medium supplemented with glyphosate.

Data set [11] concerns S. typhimurium strain CTF3. Kind of data set: Spot test for glyphosate resistance. The class given is cell-based. The method, then:
as §7

Data set [12] concerns S. typhimurium Pmg^r mutants (fifteen mutants, incl. CT7). Kind of data set: Streak test on M9 medium with glyphosate. It is filed as cell-based. The settings on record: streaked on M9 medium. The protocol:
as §7

For the next data set, the system named is S. typhimurium STK1. Briefly: Growth in minimal medium supplemented with glyphosate, wild type. It is filed as cell-based. As to conditions: Salmonella enterica, minimal medium with 70 μg/ml glyphosate. The method, then: as §7
(§8) The above assays were performed on enzyme preparations obtained from cells grown in minimal medium. To determine whether the enzyme of the glyphosate resistance mutant was differentially regulated during glyphosate induced stress, STK1, the wild type, and CT7 the mutant, were grown in minimal medium supplemented, respectively, with 70 μg/ml and 1000 μg/ml of glyphosate. These conditions give approximately 20-30% growth inhibition. The specific activity of preparations from cells grown in the presence of glyphosate was 10% higher than that found in preparations from cells grown without glyphosate.

The test system of a further data set is S. typhimurium CT7. Briefly: Growth in minimal medium supplemented with glyphosate, mutant. The class given is cell-based. The settings on record: Salmonella enterica, read-out: growth inhibition. The method, then:
as §7, §8

The next data set concerns wild type E. coli. Briefly: Growth kinetics with glyphosate, wild type E. coli. The class given is cell-based. The method, then:
as §7
(§9) The growth kinetics of both S. typhimurium and E. coli strains with wild type and mutant aroA locus were investigated.

For data set [13], the system named is aroA E. coli strain LC3 harboring pPMG1. Kind of data set: Growth kinetics with glyphosate, LC3 harboring pPMG1. The settings on record: 2 μg/ml of glyphosate. The class given is cell-based. The method, then:
as §7, §9

The test system of data set [14] is aroA E. coli strains with pPMG11. Kind of data set: Glyphosate resistance of aroA E. coli carrying pPMG11. It is filed as cell-based. The settings on record: 5.5 Kb BglII/HindIII Salmonella DNA segment (pPMG11). The method, then: as §7
To subclone the aroA-Pmg^r gene, plasmid pPMG1 was digested with the restriction endonuclease BglII. […] Plasmid pPMG1 was digested to completion with BglII, ligated in vitro and the DNA transformed into strain LC2 selecting for aroA complementation. Clones were screened and plasmids containing the 10 Kb BglII fragment in both orientations relative to the vector pVK100 were identified. Plasmids pPMG5 and pPMG6 complemented aroA E. coli strains and conferred high levels of glyphosate resistance. Further subcloning was accomplished by digesting plasmid pPMG5 with BglII and HindIII and ligating in vitro. Strain LC2 was transformed and colonies which were aroA+ and kanamycin sensitive were selected. […] This plasmid was designated pPMG11.

For data set [15], the system named is C=C(OP(=O)(O)O)C(=O)O. Kind of data set: Fluorimetric EPSP synthase assay, forward direction, purified mutant enzyme. The class given is biochemical, S. typhimurium. As to conditions: other: mutant, pH 7.0, 500 μM shik 3-P. The protocol: as §5
Data set [16] concerns O=C(O)C1=C[C@@H](OP(=O)(O)O)[C@@H](O)[C@H](O)C1. Described as above. The class given is biochemical, S. typhimurium. The settings on record: other: mutant, pH 7.0, 500 μM PEP. The method, then: as §5
Data set [17] concerns C=C(OP(=O)(O)O)C(=O)O. Briefly: Fluorimetric EPSP synthase assay, forward direction, purified wild type enzyme. It is filed as biochemical, S. typhimurium. As to conditions: other: wild type, pH 7.0, 500 μM shik 3-P. The method, then: as §5
Data set [18] has as its system O=C(O)C1=C[C@@H](OP(=O)(O)O)[C@@H](O)[C@H](O)C1. The data set is described as above. The settings on record: other: wild type, pH 7.0, 500 μM PEP. It is filed as biochemical, S. typhimurium. The protocol: as §5

T1 sequence (P07637 whole entry): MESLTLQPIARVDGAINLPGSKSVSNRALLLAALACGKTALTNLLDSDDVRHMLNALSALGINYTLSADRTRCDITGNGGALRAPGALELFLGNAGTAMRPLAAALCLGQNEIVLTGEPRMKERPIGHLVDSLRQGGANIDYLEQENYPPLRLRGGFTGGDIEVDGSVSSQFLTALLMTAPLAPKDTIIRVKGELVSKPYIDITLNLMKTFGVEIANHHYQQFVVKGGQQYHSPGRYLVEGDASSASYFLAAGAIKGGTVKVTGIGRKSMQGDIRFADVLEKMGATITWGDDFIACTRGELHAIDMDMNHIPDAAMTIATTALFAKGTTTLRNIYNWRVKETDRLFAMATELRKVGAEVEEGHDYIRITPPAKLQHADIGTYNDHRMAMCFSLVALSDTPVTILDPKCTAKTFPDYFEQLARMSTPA
T5 sequence (P07637 whole entry P101S): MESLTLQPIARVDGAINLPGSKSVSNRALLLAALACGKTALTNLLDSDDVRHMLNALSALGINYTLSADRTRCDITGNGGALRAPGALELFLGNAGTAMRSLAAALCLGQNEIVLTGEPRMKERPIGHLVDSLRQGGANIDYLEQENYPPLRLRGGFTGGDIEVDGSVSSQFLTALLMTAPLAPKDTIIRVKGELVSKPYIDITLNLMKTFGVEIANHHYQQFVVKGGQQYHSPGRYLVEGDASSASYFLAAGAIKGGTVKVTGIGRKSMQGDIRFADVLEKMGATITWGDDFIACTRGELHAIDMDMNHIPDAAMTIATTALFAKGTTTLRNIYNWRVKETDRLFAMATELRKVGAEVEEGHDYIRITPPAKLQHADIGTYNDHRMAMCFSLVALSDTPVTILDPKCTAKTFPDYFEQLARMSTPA
T3 sequence (P07637 whole entry): as the sequence (P07637 whole entry) above
T2 sequence (P07637 whole entry P101S): as the sequence (P07637 whole entry P101S) above
T4 sequence (P07637 whole entry P101S): as above

By Km is commonly meant the substrate concentration at which the rate is half of its maximum. On to “5-enolpyruvyl-3-phosphoshikimate synthase from glyphosate-resistant mutant CT7 (Salmonella enterica subsp. enterica serovar Typhimurium str. LT2; P101S)”, for which, in [1], the Km was found to be 2800 µM.

“5-enolpyruvyl-3-phosphoshikimate synthase from wild type strain STK1 (Salmonella enterica subsp. enterica serovar Typhimurium str. LT2)”: the Km in data set [2] is 340 µM.

The Kd is the equilibrium constant for the complex coming apart. The Ki is a measure of affinity in units of concentration, obtained from inhibition or displacement. Broadly, the inhibition is the relative decrease from the control value, in per cent. As for `O=C(O)CNCP(=O)(O)O` [glyphosate, N-phosphonomethyl glycine], in data set [3] (STK1 grown with 70 μg/ml glyphosate, read-out: increase of ES-3-P synthase specific activity, cells grown with vs without glyphosate), the activation at 70 µg/mL was 10%. The Kd in data set [3] (STK1 wild type enzyme preparation, read-out: Kd glyphosate) stood at 22 µM; in data set [4], 190 µM. Besides, the inhibition constant Ki was 1.5 µM in [5] and 5 µM in [6]. For the same molecule, the remaining activity at 100 µM in [7] stood at 35%. For the same molecule, the remaining activity at 500 µM in data set [7] turned out to be 9%. In addition, the “EPSP Synthase Activity, % control” value in [8] (glyphosate 100 μM) is given as 8 % control; in data set [8] (glyphosate 500 μM), 2 % control; in data set [9] (glyphosate 100 μM), 29 % control; in data set [9] (glyphosate 500 μM) it was 9 % control. Also, the MIC in data set [10] is greater than 200 µg/mL. Moreover, the “glyphosate concentration to which the strain was resistant” value in data set [11] is 350 µg/mL. Besides, the “glyphosate concentration on which colonies formed in 48 hours” value in data set [12] turned out to be 2 mg/mL. The molecule also came in with an inhibition at 70 µg/mL with S. typhimurium STK1 of 20 to 30%. In addition, in the data set on S. typhimurium CT7, the inhibition at 1000 µg/mL lay within 20 to 30%. In the data set on wild type E. coli (Escherichia coli, 100 μg/ml glyphosate, read-out: inhibition of growth rate), the inhibition at 100 µg/mL was 40%. Besides, the growth entry in the data set with wild type E. coli (one mg/ml glyphosate) is listed as “no growth was observed”. The growth inhibition result in data set [13] is “not significantly inhibited”. The “level of glyphosate resistance conferred” value in [14] is “approx. 2 mg/ml”.

As for “EPSP synthase purified from the mutant glyphosate-resistant strain (Salmonella enterica subsp. enterica serovar Typhimurium str. LT2; P101S)”, the Km stood at 22 µM in the data set with C=C(OP(=O)(O)O)C(=O)O [15] and 1.6 µM in data set [16].

Turning to “EPSP synthase purified from wild type S. typhimurium (Salmonella enterica subsp. enterica serovar Typhimurium str. LT2)”, the Km is 30 µM with C=C(OP(=O)(O)O)C(=O)O [17] and 2.6 µM in data set [18].
